Common to all, as to assay type: functional
In assay [1] the test system is T47D. Nature of the assay: Effective concentration against human breast cancer T47D cell line apoptosis inducing activity was measured by using cell and caspase-based HTS assay.
For assay [2], the system named is NCI-H1299. Nature of the assay: Growth inhibitory activity against human non-small cell lung cancer H1299 cells.
The subject of assay [3] is T47D. Nature of the assay: Growth inhibitory activity against human breast cancer T47D cell line.
Assay [4] has as its system NCI-H1299. Nature of the assay: Effective concentration against human non-small cell lung cancer H1299 cells inducing apoptosis, activity was measured by cell and caspase-based HTS assay.
Assay [5] has as its system T47D. Description: Ratio of inhibition of cell proliferation activity to that of caspase activation inducing apoptosis activity in human breast cancer T47D cell line.
Assay [6] concerns NCI-H1299. Nature of the assay: Effective concentration against human non-small cell lung cancer H1299 cells inducing apoptosis activity was measured by using cell and caspase-based HTS assay.
Assay [7] relates to T47D. Description: Effective concentration against human breast cancer T47D cell line inducing apoptosis activity was measured by cell and caspase-based HTS assay.
For assay [8], the target named is Tubulin beta-4B chain (Homo sapiens, UniProt P68371). Nature of the assay: Inhibitory activity against tubulin using tubulin polymerization assay.
Chain of Tubulin beta-4B chain (P68371 whole entry): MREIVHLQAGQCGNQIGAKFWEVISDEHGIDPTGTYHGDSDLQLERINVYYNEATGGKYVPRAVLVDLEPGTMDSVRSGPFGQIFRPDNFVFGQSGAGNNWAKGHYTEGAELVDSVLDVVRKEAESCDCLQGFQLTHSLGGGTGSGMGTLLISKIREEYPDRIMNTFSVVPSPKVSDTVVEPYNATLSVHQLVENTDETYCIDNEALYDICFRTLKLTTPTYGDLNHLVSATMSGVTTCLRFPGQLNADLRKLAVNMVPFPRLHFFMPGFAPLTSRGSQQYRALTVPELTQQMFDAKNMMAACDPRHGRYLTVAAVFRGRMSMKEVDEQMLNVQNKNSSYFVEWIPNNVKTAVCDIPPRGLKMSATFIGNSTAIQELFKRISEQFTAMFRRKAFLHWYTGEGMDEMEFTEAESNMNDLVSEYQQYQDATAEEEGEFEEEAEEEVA

Turning to `COc1cc(C2C(C#N)=C(N)Oc3c2ccc(N)c3N)cc(Br)c1OC` (stereo not given), the EC50 (usually the concentration that produces a half-maximal response) was found to be 34 nM in assay [1] and 81 nM in assay [4]. The 50% growth inhibitory concentration (GI50) (usually the concentration at which growth is held to half of that of the control) in assay [2] (Homo sapiens, NCI-H1299) worked out at 31 nM; in assay [3] it was 150 nM. Moreover, the GI50/EC50 in assay [5] is on record as 4.4.

Consider `CCCCNc1ccc2c(c1)OC(N)=C(C#N)C2c1cccc([N+](=O)[O-])c1` (stereo not given), for which the EC50 was 110 nM in assay [1] and 170 nM in assay [4].

`CCNc1ccc2c(c1)OC(N)=C(C#N)C2c1cc(Br)c(OC)c(OC)c1` (stereo not given): the EC50 in assay [1] came out at 14 nM; in assay [6] it was 27 nM.

For `COc1ccc2c(c1)OC(N)=C(C#N)C2c1cccc([N+](=O)[O-])c1` (stereo not given), the EC50 came to 89 nM in assay [1] and 170 nM in assay [4].

For `COc1cc(C2C(C#N)=C(N)Oc3c2ccc(N)c3C)cc(Br)c1OC` (stereo not given), the EC50 in assay [1] came to 26 nM; in assay [4], 53 nM.

As to `CCCCNc1ccc2c(c1)OC(N)=C(C#N)C2c1cccc(OC)c1` (stereo not given), the EC50 in assay [1] amounted to 110 nM; in assay [4], 190 nM.

For `COc1cc(OC)c2c(c1)OC(N)=C(C#N)C2c1cc(OC)c2c(c1)OCO2` (stereo not given), the 50% growth inhibitory concentration (GI50) in assay [2] (Homo sapiens, NCI-H1299) is greater than 10000 nM; in assay [3], greater than 10000 nM. In addition, the concentration giving a half-maximal response (EC50) in assay [6] and in assay [7] was greater than 10000 nM throughout. Besides, the GI50/EC50 in assay [5] came out at 1.

Consider `COc1cc(C2C(C#N)=C(N)Oc3c2ccc(N)c3N)cc(I)c1OC` (stereo not given), for which the half-maximal effective concentration (EC50) in assay [1] was found to be 49 nM; in assay [4], 100 nM.

As for `COc1cc(OC)cc(C2C(C#N)=C(N)Oc3cc(OC)ccc32)c1` (stereo not given), the figures for the concentration giving a half-maximal response (EC50) in assay [1] and in assay [4] were 15 nM and 32 nM, respectively.

Consider `COc1cc(C2C(C#N)=C(N)Oc3cc(Br)ccc32)cc(Br)c1OC` (stereo not given), for which the values for the EC50 in assay [1] and in assay [4] were 140 nM and 280 nM, respectively.

Consider `COc1ccc2c(c1)OC(N)=C(C#N)C2c1cc(OC)c2c(c1)OCO2` (stereo not given), for which the GI50 in assay [2] (Homo sapiens, NCI-H1299) came out at 240 nM; in assay [3], 260 nM. For the same compound, the EC50 came to 230 nM in assay [6] and 160 nM in assay [7]. For the same compound, in assay [5], the GI50/EC50 worked out at 1.6.

For the compound `CCCCNc1ccc2c(c1)OC(N)=C(C#N)C2c1cc(OC)cc(OC)c1` (stereo not given), the EC50 is 55 nM in assay [1] and 120 nM in assay [4].

Regarding `N#CC1=C(N)Oc2c(ccc(N)c2N)C1c1cccc([N+](=O)[O-])c1` (stereo not given), the EC50 in assay [1] worked out at 390 nM; in assay [4], 420 nM.

As for `COc1cc(C2C(C#N)=C(N)Oc3c2ccc(N)c3N)cc(Cl)c1OC` (stereo not given), the EC50 in assay [1] was determined as 24 nM; in assay [4], 58 nM.

On to `COc1cncc(C2C(C#N)=C(N)Oc3cc(OC)ccc32)c1` (stereo not given), for which the EC50 worked out at 47 nM in assay [1] and 100 nM in assay [4]. For the same compound, the GI50 is 72 nM in assay [2] (Homo sapiens, NCI-H1299) and 65 nM in assay [3]. Further, the GI50/EC50 in assay [5] is reported as 1.4.

With `COc1cc2c(cc1OC)C(c1cc(OC)c3c(c1)OCO3)C(C#N)=C(N)O2` (stereo not given), the GI50 in assay [2] (Homo sapiens, NCI-H1299) is greater than 10000 nM; in assay [3], greater than 10000 nM. Further, the EC50 in assay [6] and in assay [7] was greater than 10000 nM throughout. The GI50/EC50 in assay [5] is on record as 1.

In the case of `COc1cc(C2C(C#N)=C(N)Oc3cc(N(C)C)ccc32)cc2c1OCO2` (stereo not given), the results for the EC50 in assay [6] and in assay [7] were 93 nM and 730 nM, respectively.

Take `N#CC1=C(N)Oc2c(ccc(N)c2N)C1c1cccc(Br)c1` (stereo not given): the EC50 in assay [1] was 150 nM; in assay [4], 230 nM.

`COc1cc(C2C(C#N)=C(N)Oc3c2ccc(C)c3C)cc(Br)c1OC` (stereo not given): the EC50 was 42 nM in assay [1] and 87 nM in assay [4].

Regarding `COc1ccc2c(c1)OC(N)=C(C#N)C2c1cc(Br)c(OC)c(OC)c1` (stereo not given), the EC50 in assay [1] is 17 nM; in assay [6], 34 nM. For the same compound, the GI50 in assay [2] (Homo sapiens, NCI-H1299) was found to be 9 nM; in assay [3] it was 8 nM. For the same compound, in assay [5], the GI50/EC50 is 0.47.

Take `COc1ccc2c(c1)OC(N)=C(C#N)C2c1ccccc1` (stereo not given): the EC50 in assay [1] turned out to be 360 nM; in assay [4] it was 520 nM.

For the compound `COc1cc(C2C(C#N)=C(N)Oc3cc(N)ccc32)cc2c1OCO2` (stereo not given), the GI50 in assay [2] (Homo sapiens, NCI-H1299) was found to be 1200 nM; in assay [3] it was 2400 nM. Moreover, the 50% effective concentration (EC50) in assay [6] stood at 1700 nM; in assay [7], 1200 nM. For the same compound, the GI50/EC50 in assay [5] came out at 2.1.

For `CCNc1cc2c(cc1C)C(c1cc(OC)c3c(c1)OCO3)C(C#N)=C(N)O2` (stereo not given), the EC50 in assay [6] worked out at 1400 nM; in assay [7], 1100 nM.

`CCCCNc1ccc2c(c1)OC(N)=C(C#N)C2c1cccc(Cl)c1` (stereo not given): the EC50 was found to be 120 nM in assay [1] and 190 nM in assay [4].

Consider `COc1cc(C2C(C#N)=C(N)Oc3cc(N4CCOCC4)ccc32)cc2c1OCO2` (stereo not given), for which the EC50 in assay [6] and in assay [7] was greater than 10000 nM throughout.

In the case of `COc1cc(C2C(C#N)=C(N)Oc3cc(Cl)ccc32)cc(Br)c1OC` (stereo not given), the results for the EC50 in assay [1] and in assay [6] were 160 nM and 290 nM, respectively. Also, the concentration for 50% growth inhibition (GI50) in assay [2] (Homo sapiens, NCI-H1299) came to 55 nM; in assay [3], 64 nM.

`COc1ccc2c(c1)OC(N)=C(C#N)C2c1cccc(Cl)c1` (stereo not given): the EC50 in assay [1] was found to be 80 nM; in assay [4], 160 nM.

Regarding `COc1cc(OC)cc(C2C(C#N)=C(N)Oc3c2ccc(N)c3N)c1` (stereo not given), the EC50 in assay [1] came to 92 nM; in assay [4] it was 190 nM.

As for `COc1cc(C2C(C#N)=C(N)Oc3c2ccc(O)c3N)cc(Br)c1OC` (stereo not given), the EC50 was found to be 61 nM in assay [1] and 180 nM in assay [4]. Also, the 50% growth inhibitory concentration (GI50) in assay [2] (Homo sapiens, NCI-H1299) came out at 110 nM; in assay [3] it was 120 nM. Moreover, the GI50/EC50 in assay [5] is listed as 2.

Take `COc1cc(C2C(C#N)=C(N)Oc3c2ccc(N)c3N)cc(Br)c1O` (stereo not given): the EC50 amounted to 23 nM in assay [1] and 62 nM in assay [4].

For `COc1cc(C2C(C#N)=C(N)Oc3c2ccc(N)c3C)cc2c1OCO2` (stereo not given), the values for the EC50 in assay [1] and in assay [6] were 310 nM and 770 nM, respectively. Further, the GI50 in assay [2] came to 860 nM; in assay [2] (Homo sapiens, NCI-H1299), 490 nM.

Take `COc1cccc(C2C(C#N)=C(N)Oc3cc(OC)ccc32)c1` (stereo not given): the EC50 in assay [1] stood at 52 nM; in assay [4], 89 nM.

`CCCCNc1ccc2c(c1)OC(N)=C(C#N)C2c1cc(OC)c(OC)c(OC)c1` (stereo not given): the EC50 was determined as 49 nM in assay [1] and 110 nM in assay [4].

On to `COc1ccc2c(c1)OC(N)=C(C#N)C2c1cccc(Br)c1` (stereo not given), for which the values for the concentration giving a half-maximal response (EC50) in assay [1] and in assay [4] were 52 nM and 95 nM, respectively.

Take `COc1cc(C2C(C#N)=C(N)Oc3c2ccc(O)c3O)cc(Br)c1OC` (stereo not given): the figures for the EC50 in assay [1] and in assay [4] were 1700 nM and 2500 nM, respectively.

For the compound `COc1cc(C2C(C#N)=C(N)Oc3cc(N)ccc32)cc(Br)c1OC` (stereo not given), the concentration for a half-maximal effect (EC50) in assay [1] stood at 33 nM; in assay [6], 67 nM. In addition, the GI50 in assay [2] (Homo sapiens, NCI-H1299) worked out at 76 nM; in assay [3], 77 nM. In addition, the IC50 (usually the concentration at which inhibition is half-maximal) in assay [8] is less than 500 nM. The GI50/EC50 in assay [5] stood at 2.3.

`CCNc1ccc2c(c1)OC(N)=C(C#N)C2c1cc(OC)c2c(c1)OCO2` (stereo not given): the EC50 in assay [6] was found to be 400 nM; in assay [7], 330 nM.

As to `CCN(CC)c1ccc2c(c1)OC(N)=C(C#N)C2c1cc(OC)c2c(c1)OCO2` (stereo not given), the EC50 in assay [6] stood at 530 nM; in assay [7], 480 nM.

As for `N#CC1=C(N)Oc2c(ccc(N)c2N)C1c1cccc(C#N)c1` (stereo not given), the results for the EC50 in assay [1] and in assay [4] were 390 nM and 460 nM, respectively.

As to `COc1ccc2c(c1)OC(N)=C(C#N)C2c1cccnc1` (stereo not given), the EC50 came out at 170 nM in assay [1] and 290 nM in assay [4].

Consider `COc1cc(C2C(C#N)=C(N)Oc3cc(O)ccc32)cc(Br)c1OC` (stereo not given), for which the EC50 in assay [1] came out at 130 nM; in assay [4] it was 210 nM. Moreover, the GI50 amounted to 190 nM in assay [2] (Homo sapiens, NCI-H1299) and 800 nM in assay [3]. Moreover, the GI50/EC50 in assay [5] was 6.1.

Regarding `COc1cc(C2C(C#N)=C(N)Oc3cc4c(cc32)OCO4)cc2c1OCO2` (stereo not given), the EC50 came to 210 nM in assay [1] and 270 nM in assay [6].

`CCOc1ccc2c(c1)OC(N)=C(C#N)C2c1cc(Br)c(OC)c(OC)c1` (stereo not given): the EC50 in assay [1] is 64 nM; in assay [4], 92 nM.

With `COc1ccc2c(c1)OC(N)=C(C#N)C2c1cc(OC)c(OC)c(OC)c1` (stereo not given), the EC50 in assay [1] is 26 nM; in assay [4] it was 57 nM.

On to `COc1cc(C2C(C#N)=C(N)Oc3cc(O)ccc32)cc2c1OCO2` (stereo not given), for which the concentration for 50% growth inhibition (GI50) in assay [2] (Homo sapiens, NCI-H1299) is 5500 nM; in assay [3], 6080 nM. In addition, the EC50 in assay [6] was determined as 5600 nM; in assay [7] it was 5800 nM. In addition, the GI50/EC50 in assay [5] was found to be 1.

`COc1cc(C2C(C#N)=C(N)Oc3cc(Nc4ccccc4)ccc32)cc2c1OCO2` (stereo not given): the EC50 in assay [6] and in assay [7] was greater than 10000 nM in each case.
